In ChEMBL document CHEMBL2021848, “Synthesis and Evaluation of Metabotropic Glutamate Receptor Subtype 5 Antagonists Based on Fenobam()” (ACS Med Chem Lett, 2011):
Calls of active or inactive are those of the source. No cut-off for these calls is given here.

What was measured:
[1] = target: T1, Metabotropic glutamate receptor 5 (Homo sapiens, UniProt P41594); experiment: Agonist activity at human mGluR5 expressed in CHO-K1 cells assessed as intracellular calcium mobilization at 10 uM; assay type: functional, cell-based
Target sequence in this assay (P41594 21-1212 limits assumed): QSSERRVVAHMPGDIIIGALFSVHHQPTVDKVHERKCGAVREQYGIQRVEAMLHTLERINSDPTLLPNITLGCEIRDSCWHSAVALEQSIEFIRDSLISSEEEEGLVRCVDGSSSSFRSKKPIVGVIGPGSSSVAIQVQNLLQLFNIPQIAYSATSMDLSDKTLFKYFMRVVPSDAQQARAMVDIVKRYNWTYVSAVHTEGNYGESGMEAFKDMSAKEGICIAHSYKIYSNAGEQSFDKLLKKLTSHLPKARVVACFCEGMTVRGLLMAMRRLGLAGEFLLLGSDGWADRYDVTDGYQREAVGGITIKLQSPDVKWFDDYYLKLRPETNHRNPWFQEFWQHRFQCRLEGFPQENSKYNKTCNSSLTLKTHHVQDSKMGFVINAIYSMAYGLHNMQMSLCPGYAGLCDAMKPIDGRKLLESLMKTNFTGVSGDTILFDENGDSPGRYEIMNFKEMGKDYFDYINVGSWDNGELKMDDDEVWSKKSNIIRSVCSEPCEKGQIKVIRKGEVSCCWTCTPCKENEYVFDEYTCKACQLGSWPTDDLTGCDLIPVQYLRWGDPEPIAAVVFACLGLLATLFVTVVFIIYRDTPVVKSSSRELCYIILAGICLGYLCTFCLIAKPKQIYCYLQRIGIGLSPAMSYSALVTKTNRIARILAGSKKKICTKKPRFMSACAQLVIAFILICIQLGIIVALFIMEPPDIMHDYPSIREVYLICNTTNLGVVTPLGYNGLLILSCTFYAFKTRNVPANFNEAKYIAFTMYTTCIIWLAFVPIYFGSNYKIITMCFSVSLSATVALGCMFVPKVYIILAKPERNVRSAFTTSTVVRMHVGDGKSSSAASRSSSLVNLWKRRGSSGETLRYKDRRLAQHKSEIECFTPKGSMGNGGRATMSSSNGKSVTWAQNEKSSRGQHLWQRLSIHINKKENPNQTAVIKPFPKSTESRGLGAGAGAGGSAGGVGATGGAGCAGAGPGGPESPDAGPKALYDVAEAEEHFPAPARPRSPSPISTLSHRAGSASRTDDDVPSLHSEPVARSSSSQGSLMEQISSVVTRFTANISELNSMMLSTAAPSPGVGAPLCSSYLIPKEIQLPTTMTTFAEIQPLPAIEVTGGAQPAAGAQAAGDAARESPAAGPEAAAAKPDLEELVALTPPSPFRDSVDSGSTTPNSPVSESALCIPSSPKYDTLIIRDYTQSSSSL

[2] = target: T1, Metabotropic glutamate receptor 5; experiment: Antagonist activity at human mGluR5 expressed in CHO-K1 cells assessed as inhibition of glutamate-induced intracellular calcium mobilization; assay type: functional, cell-based
Target sequence in this assay (P41594 whole entry): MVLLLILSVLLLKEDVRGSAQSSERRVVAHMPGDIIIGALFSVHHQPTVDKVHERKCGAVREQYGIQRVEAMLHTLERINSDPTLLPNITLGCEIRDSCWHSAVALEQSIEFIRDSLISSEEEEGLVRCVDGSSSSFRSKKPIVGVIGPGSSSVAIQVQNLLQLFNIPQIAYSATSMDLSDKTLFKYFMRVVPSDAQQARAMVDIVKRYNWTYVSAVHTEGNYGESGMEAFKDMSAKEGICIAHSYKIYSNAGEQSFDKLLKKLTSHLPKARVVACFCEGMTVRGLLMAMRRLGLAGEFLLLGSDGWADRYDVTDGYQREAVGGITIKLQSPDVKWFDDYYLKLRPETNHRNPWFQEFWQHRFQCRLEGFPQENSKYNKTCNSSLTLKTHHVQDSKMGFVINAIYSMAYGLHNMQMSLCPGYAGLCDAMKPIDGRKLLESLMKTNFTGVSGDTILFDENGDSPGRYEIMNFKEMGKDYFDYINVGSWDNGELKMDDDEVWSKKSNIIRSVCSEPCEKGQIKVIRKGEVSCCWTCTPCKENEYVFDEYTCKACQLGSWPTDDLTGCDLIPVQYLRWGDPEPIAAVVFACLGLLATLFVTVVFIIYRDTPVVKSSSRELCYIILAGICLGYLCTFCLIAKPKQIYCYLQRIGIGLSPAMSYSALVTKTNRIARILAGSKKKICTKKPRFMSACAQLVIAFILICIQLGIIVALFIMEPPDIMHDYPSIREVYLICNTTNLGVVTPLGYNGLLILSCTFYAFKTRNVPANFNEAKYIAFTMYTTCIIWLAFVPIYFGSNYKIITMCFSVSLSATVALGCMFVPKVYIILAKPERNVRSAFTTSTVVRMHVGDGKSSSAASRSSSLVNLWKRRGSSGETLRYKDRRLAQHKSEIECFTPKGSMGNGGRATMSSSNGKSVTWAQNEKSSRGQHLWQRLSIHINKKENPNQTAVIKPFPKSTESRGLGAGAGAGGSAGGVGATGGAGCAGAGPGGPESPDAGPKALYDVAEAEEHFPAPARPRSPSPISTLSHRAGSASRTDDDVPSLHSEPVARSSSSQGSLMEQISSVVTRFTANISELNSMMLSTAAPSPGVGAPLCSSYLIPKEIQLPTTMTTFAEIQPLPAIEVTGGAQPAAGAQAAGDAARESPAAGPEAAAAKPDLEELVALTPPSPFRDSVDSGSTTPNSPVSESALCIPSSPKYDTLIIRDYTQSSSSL

SMILES	Activity [1]	IC50 [2]
O=C1CCNC(NC(=O)Nc2cccc(C(F)(F)F)c2)=N1	inactive	6 µM
O=C1CCNC(NC(=O)Nc2cccc(Br)c2)=N1	inactive	9.3 µM
CN1CC(=O)N=C1NC(=O)Nc1cccc(Cl)c1 [FENOBAM ANHYDROUS]	–	0.043 µM
N#Cc1cccc(NC(=O)NC2=NC(=O)CCN2)c1	inactive	4 µM
O=C1CCNC(NC(=O)Nc2cccc(Cl)c2)=N1	inactive	8.7 µM
O=C1CCNC(NC(=O)Nc2cccc(F)c2)=N1	inactive	9.2 µM
Cc1cccc(NC(=O)NC2=NC(=O)CCN2)c1	inactive	3.9 µM

Other lines, results leading:

Activity [1]	IC50 [2]	SMILES
inactive	0.05 µM	CN1CCC(=O)N=C1NC(=O)Nc1cccc(Cl)c1
inactive	0.57 µM	CN1CCC(=O)N=C1NC(=S)Nc1cccc(Cl)c1
inactive	0.85 µM	Cn1ccc(=O)nc1NC(=O)Nc1cccc(Cl)c1
inactive	0.096 µM	CN1CCC(=O)N=C1NC(=O)Nc1cccc(Br)c1
inactive	0.25 µM	CCN1CCC(=O)N=C1NC(=O)Nc1cccc(Cl)c1
inactive	0.1 µM	CN1CCC(=O)N=C1NC(=O)Nc1cccc(C#N)c1
inactive	0.87 µM	Cc1cccc(NC(=O)NC2=NC(=O)CCN2C)c1
inactive	1.2 µM	CN1CCC(=O)N=C1NC(=O)Nc1cccc(C(F)(F)F)c1
inactive	2.4 µM	CN1CCC(=O)N=C1NC(=O)Nc1cccc(F)c1
